Source: patent US8026218B2, “Bifunctional analgesic compounds for opioid receptor agonists and neurokinin-1 receptor antagonists” (The University of Arizona, priority 2006, dated 2011)
In brackets after ≈: the same amount, converted by molar mass. Like-named read-outs stand apart in the source and are kept apart here.

Assays:
rat NK1 (rNK1) receptor = biological target: T1, rat NK1 (rNK1) receptor (Rattus norvegicus, UniProt P14600); assay: Radioligand competition binding, [3H]substance P, rNK1/CHO membranes; conditions: for IC50: LogIC50, rNK1, [3H]Substance P, Table 6, logarithm of IC50 (negative), CHO cell membranes
T1 construct: expressed in transfected cells; host or cells: CHO (rNK-1/CHO cell line from Dr. James Krause)
T1 sequence (P14600 whole entry): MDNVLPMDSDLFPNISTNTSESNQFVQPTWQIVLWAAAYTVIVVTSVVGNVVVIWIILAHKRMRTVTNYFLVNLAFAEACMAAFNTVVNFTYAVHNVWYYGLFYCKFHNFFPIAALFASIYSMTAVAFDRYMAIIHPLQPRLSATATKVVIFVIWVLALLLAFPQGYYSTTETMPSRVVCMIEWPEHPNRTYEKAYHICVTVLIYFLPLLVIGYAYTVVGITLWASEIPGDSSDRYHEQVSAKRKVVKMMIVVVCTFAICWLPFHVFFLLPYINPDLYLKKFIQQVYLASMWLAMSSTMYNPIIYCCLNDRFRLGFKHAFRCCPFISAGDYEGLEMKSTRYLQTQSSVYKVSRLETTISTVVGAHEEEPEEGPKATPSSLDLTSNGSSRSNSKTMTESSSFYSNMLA

[1] = biological target: T2, human NK1 receptor (hNK1) (Homo sapiens, UniProt P25103); assay: Radioligand competition binding, [3H]-Substance P, hNK1
T2 construct: expressed in transfected cells
T2 sequence (P25103 whole entry): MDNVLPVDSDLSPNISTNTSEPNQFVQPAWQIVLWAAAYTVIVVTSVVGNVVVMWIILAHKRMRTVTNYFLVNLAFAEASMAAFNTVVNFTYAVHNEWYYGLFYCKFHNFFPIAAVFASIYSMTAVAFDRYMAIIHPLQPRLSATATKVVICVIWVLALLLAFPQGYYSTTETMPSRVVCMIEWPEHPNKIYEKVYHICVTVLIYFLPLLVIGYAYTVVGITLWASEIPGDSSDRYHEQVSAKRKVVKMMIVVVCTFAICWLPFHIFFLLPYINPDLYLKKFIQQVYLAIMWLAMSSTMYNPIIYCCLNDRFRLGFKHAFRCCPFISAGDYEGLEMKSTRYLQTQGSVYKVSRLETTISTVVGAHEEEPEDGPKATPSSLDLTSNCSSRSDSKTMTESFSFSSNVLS

[2] = Octanol/saline distribution (logD7.4); type: physicochemical
Description: HEPES buffer (0.05 M HEPES buffer in 0.1 M NaCl, pH 7.4, 500 μL) was added to 2 mg of compound and mixed with 500 μL of 1-octanol. The sample was shaken at r.t. for 12 h to allow equilibrating. The sample was centrifuged at 6500 rpm in a VanGuard V6500 (GlaxoSmithKline, Research Triangle Park, N.C.) for 15 min. The layers were separated and each layer was centrifuged once again. The compound concentrations of obtained layers were analyzed by HPLC (30-70% of acetonitrile containing 0.1% TFA within 20 min and up to 95% within additional 5 min, 1 mL/min, 230 nm, Vydac 218TP104 C-18 column). The logarithm of 1-octanol/saline distribution (logD7.4) was calculated as the ratio of compound concentration in the 1-octanol and saline phases.
Octanol/saline distribution (logD7.4) (Yamamoto, 2007, J. Med. Chem., submitted). HEPES buffer (0.05 M HEPES buffer in 0.1 M NaCl, pH 7.4, 500 μL) was added to 2 mg of compound and mixed with 500 μL of 1-octanol. The sample was shaken at r.t. for 12 h to allow equilibrating. The sample was centrifuged at 6500 rpm in a VanGuard V6500 (GlaxoSmithKline, Research Triangle Park, N.C.) for 15 min. The layers were separated and each layer was centrifuged once again. The compound concentrations in the obtained layers were analyzed by HPLC (30-70% of acetonitrile containing 0.1% TFA within 20 min and up to 95% within additional 5 min, 1 mL/min, 230 nm, Vydac 218TP104 C-18 column). The logarithm of 1-octanol/saline distribution (logD7.4) was calculated as the ratio of compound concentration in the 1-octanol and saline phases.

[3] = biological target: T3, human δ opioid receptors (hDOR) (Homo sapiens, UniProt P41143); assay: [35S]GTP-γ-S binding assay, hDOR; type: biochemical
T3 construct: expressed in transfected cells; host or cells: HN9.10 neuroblastoma cell line, pCDNA3, neomycin-selected clones
T3 sequence (P41143 whole entry): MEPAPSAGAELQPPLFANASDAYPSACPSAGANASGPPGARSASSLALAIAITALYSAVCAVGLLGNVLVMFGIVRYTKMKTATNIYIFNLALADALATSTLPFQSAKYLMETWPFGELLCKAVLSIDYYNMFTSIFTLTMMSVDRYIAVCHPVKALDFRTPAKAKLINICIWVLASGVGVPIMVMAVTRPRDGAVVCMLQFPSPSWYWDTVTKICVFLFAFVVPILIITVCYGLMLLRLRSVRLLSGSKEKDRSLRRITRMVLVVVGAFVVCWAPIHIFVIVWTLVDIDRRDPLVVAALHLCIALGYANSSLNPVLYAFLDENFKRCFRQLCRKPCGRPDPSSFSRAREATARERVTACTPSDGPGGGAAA

[4] = biological target: T4, rat μ opioid receptors (rMOR) (Rattus norvegicus, UniProt P33535); assay: biochemical; type: biochemical
T4 construct: expressed in transfected cells; host or cells: HN9.10 neuroblastoma cell line, pCDNA3, neomycin-selected clones
T4 sequence (P33535 whole entry): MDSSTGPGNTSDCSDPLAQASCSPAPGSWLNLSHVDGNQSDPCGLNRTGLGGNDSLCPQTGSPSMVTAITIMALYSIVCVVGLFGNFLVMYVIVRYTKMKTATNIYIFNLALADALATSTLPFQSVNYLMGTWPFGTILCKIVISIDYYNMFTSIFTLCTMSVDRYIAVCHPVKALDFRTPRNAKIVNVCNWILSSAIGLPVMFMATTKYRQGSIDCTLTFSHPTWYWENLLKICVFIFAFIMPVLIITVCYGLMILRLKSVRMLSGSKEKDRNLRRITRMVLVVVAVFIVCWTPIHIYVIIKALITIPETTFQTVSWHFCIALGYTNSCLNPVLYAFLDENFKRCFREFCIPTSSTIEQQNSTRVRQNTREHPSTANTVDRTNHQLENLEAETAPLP

[5] = Solubility in HEPES buffer; type: physicochemical
Description: Solubility. HEPES buffer (0.05 M HEPES buffer in 0.1 M NaCl, pH 7.4, 500 μL) was added to 1 mg of compound. The sample was vortexed for 30 sec, sonicated for 5 min, shaken at r.t. for 2 h, and then allowed to be stayed overnight to equilibration. The sample was filtrated with an Acrodisc Syringe Filter (13 mm, 0.45 μm pore, PTFE membrane, Pall Life Sciences, East Hills, N.Y.).

rNK1 = rNK1 (Rattus norvegicus, UniProt P14600); conditions: previous studies; read-out: Affinity (Ki in nM), rNK1; cited from earlier work
Chain of rNK1 (P14600 whole entry): as the sequence (P14600 whole entry) above

MOR = MOR (Homo sapiens, UniProt P35372); conditions: previous studies; read-out: Affinity (Ki in nM), MOR; cited from earlier work
Chain of MOR (P35372 whole entry): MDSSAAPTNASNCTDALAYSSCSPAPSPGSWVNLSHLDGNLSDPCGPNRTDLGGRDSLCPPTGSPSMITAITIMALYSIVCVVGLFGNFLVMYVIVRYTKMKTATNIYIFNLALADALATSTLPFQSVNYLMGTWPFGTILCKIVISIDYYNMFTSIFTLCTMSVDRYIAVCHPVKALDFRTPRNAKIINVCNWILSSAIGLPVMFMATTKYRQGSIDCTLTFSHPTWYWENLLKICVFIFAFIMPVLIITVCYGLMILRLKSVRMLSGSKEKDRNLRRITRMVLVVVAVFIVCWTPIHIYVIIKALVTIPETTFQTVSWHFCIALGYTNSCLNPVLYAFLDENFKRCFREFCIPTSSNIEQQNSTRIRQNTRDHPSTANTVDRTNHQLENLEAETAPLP

δ opioid receptors (MVD) = biological target: T5, δ opioid receptors (MVD) (Mus musculus, UniProt P32300); assay: Mouse isolated vas deferens (MVD) assay, opioid agonist
T5 construct: from tissue; host or cells: mouse (ICR) isolated vas deferens
T5 sequence (P32300 whole entry): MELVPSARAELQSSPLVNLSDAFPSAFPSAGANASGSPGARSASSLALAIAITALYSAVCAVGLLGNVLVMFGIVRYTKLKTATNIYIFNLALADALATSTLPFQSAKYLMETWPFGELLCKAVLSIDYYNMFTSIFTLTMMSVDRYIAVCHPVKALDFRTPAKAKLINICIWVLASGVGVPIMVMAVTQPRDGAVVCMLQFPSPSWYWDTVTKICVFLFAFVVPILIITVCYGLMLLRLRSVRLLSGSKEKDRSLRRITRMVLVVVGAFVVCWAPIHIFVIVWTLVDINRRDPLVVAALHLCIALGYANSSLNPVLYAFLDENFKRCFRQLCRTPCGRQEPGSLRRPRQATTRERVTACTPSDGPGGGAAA

[6] = biological target: T6, Substance P receptors (guinea pig NK1) (Cavia porcellus, UniProt P30547); assay: Guinea pig isolated ileum (GPI) assay with substance P stimulation in presence of 1 μM naloxone
T6 construct: from tissue; host or cells: guinea pig (Hartley) ileum LMMP, 1 μM naloxone present
T6 sequence (P30547 whole entry): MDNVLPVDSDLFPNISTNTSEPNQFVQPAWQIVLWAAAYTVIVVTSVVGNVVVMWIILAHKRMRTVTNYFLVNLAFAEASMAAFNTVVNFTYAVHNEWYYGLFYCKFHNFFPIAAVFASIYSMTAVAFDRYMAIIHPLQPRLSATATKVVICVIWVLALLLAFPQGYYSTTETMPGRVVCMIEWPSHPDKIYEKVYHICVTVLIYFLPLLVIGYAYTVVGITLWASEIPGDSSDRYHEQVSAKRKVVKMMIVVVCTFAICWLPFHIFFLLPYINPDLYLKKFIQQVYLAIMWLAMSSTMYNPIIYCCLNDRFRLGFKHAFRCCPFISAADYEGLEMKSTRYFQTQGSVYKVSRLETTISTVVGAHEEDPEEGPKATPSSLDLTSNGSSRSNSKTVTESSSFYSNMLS

[7] = biological target: T4, rat μ opioid receptors (rMOR); assay: Radioligand competition binding, [3H]DAMGO, rMOR membranes
μ opioid receptors (GPI) = assay: Guinea pig isolated ileum (GPI) assay, opioid agonist;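 also: inhibition of electrically evoked contractions (0.1 Hz, 0.4 msec, supramaximal voltage) in organ baths at 37 °C, contraction height 3 min after each cumulative dose versus the 1 min before dosing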
[8] = 0.05 N HEPES buffer in 0.1 N NaCl
[9] = read-out: GTP binding hDOR Emax
[10] = read-out: GTP binding hDOR Emax (%)
[11] = Table 24, read-out: GTP binding rMOR Emax (%)
[12] = Table 39, read-out: GTP binding rMOR Emax
[13] = read-out: Inhibition % at 1 μM, rNK1, [3H]Substance P
[14] = GPI/LMMP SP Antagonist (Ke; nM), Table 24
[15] = Table 39, read-out: GPI/LMMP opioid(mu) agonist (IC50; nM)
[16] = Table 39, read-out: Affinity hNK1 (Ki; nM)
[17] = read-out: Ki (nM), hNK1, [3H]Substance P, Table 6, CHO cell membranes

CC(C)C[C@H](NC(=O)[C@@H]1CCCN1C(=O)[C@H](Cc1ccccc1)NC(=O)CNC(=O)[C@@H](C)NC(=O)[C@@H](N)Cc1ccc(O)cc1)C(=O)N[C@@H](Cc1c[nH]c2ccccc12)C(=O)OCc1ccccc1 [TY011, H-Tyr-DAla-Gly-Phe-Pro-Leu-Trp-O-Bzl]
IC50 (rat NK1 (rNK1) receptor): 794 nM | Ki (rat NK1 (rNK1) receptor; read-out: Ki, rNK1): 270 nM | IC50 [1]: 200 nM | Ki ([1]; read-out: Ki, hNK1): 100 nM | logD7.4 [2, 8]: 3.8

CCCC[C@H](NC(=O)[C@H](Cc1ccccc1)NC(=O)CNC(=O)[C@@H](C)NC(=O)[C@@H](N)Cc1ccc(O)cc1)C(=O)N1CCC[C@H]1C(=O)NC(COC1OC(CO)C(O)C(O)C1O)C(=O)N[C@@H](Cc1c[nH]c2ccccc12)C(=O)NCc1cc(C(F)(F)F)cc(C(F)(F)F)c1 (some centres unmarked) [TY041]
Emax [3, 9]: 62% | Emax [3, 10]: 62% | Emax [4, 11]: 42% | Emax [4, 12]: 42% | solubility ([5]; Table 26, HEPES buffer pH 7.4): < 1 µg/mL

HTyrProPhePheGlyLeuMetNH2 (H-YPFFGLM-NH2) [ESP7]
Ki (rNK1): 289 nM | Ki (MOR): 218 nM

CC(C)C[C@H](NC(=O)[C@@H]1CCCN1C(=O)[C@H](Cc1ccccc1)NC(=O)CNC(=O)[C@@H](C)NC(=O)[C@@H](N)Cc1ccc(O)cc1)C(=O)N[C@@H](Cc1c[nH]c2ccccc12)C(=O)N(C)Cc1ccccc1 [TY010, H-Tyr-D-Ala-Gly-Phe-Pro-Leu-Trp-NMe-Bzl]
inhibition at 1 µM (rat NK1 (rNK1) receptor; [13]): 33 ± 7.6% | IC50 [1]: 3.16 nM | Ki [1]: 100 nM | Ki ([1]; read-out: Ki, hNK1): 1.6 nM | logD7.4 [2, 8]: 3.5

CCCC[C@H](NC(=O)[C@H](Cc1ccccc1)NC(=O)CNC(=O)[C@@H](C)NC(=O)[C@@H](N)Cc1ccc(O)cc1)C(=O)N[C@@H](COC1O[C@H](CO)[C@@H](O)[C@H](O)[C@H]1O)C(=O)N[C@@H](CC(C)C)C(=O)N[C@@H](Cc1c[nH]c2ccccc12)C(=O)NCc1cc(C(F)(F)F)cc(C(F)(F)F)c1 (some centres unmarked) [TY044]
IC50 (δ opioid receptors (MVD)): 18 nM | Kb [6, 14]: 18.4 nM | Ki [7]: 3370 nM | EC50 ([4]; GTP binding rMOR EC50 (nM)): 380 nM | Emax ([4]; read-out: GTP binding rMOR Emax): 85% | Emax ([4]; read-out: GTP binding rMOR Emax (%)): 85% | solubility thermodynamic ([5]; Table 26, HEPES buffer pH 7.4): < 1 µg/mL | Ki [1]: 1.3 nM

CCCC[C@H](NC(=O)[C@H](Cc1ccccc1)NC(=O)CNC(=O)[C@@H](C)NC(=O)[C@@H](N)Cc1ccc(O)cc1)C(=O)N1CCC[C@H]1C(=O)N[C@@H](CC(C)C)C(=O)N[C@@H](Cc1c[nH]c2ccccc12)C(=O)NCc1cc(C(F)(F)F)cc(C(F)(F)F)c1 [TY045]
IC50 (δ opioid receptors (MVD)): 13.6 nM | Emax ([3]; Table 24, read-out: GTP binding hDOR Emax (%)): 125% | Emax ([3]; Table 39, read-out: GTP binding hDOR Emax): 125% | Kb [6, 14]: 40.8 nM | solubility ([5]; Table 26, HEPES buffer pH 7.4): < 1 µg/mL | logD7.4 ([2]; Table 26, pH 7.4): >3.0 | IC50 (μ opioid receptors (GPI); Table 24, read-out: GPI/LMMP Opioid (μ) Agonist (IC50; nM)): 463 nM | IC50 (μ opioid receptors (GPI); [15]): 463 nM

CC(C)C[C@H](NC(=O)[C@@H]1CCCN1C(=O)[C@H](Cc1ccccc1)NC(=O)CNC(=O)[C@@H](C)NC(=O)[C@@H](N)Cc1ccc(O)cc1)C(=O)N[C@@H](Cc1c[nH]c2ccccc12)C(=O)NCc1cc(C(F)(F)F)cc(C(F)(F)F)c1 [TY012, H-Tyr-D-Ala-Gly-Phe-Pro-Leu-Trp-NH-3,5-Bzl(CF3)2]
IC50 (rat NK1 (rNK1) receptor): 100 nM | IC50 [1]: 1.26 nM | logD7.4 [2, 8]: >4

CC(C)C[C@H](NC(=O)[C@@H]1CCCN1C(=O)C(COC1OC(CO)C(O)C(O)C1O)NC(=O)[C@H](Cc1ccccc1)NC(=O)CNC(=O)[C@@H](C)NC(=O)[C@@H](N)Cc1ccc(O)cc1)C(=O)N[C@@H](Cc1c[nH]c2ccccc12)C(=O)NCc1cc(C(F)(F)F)cc(C(F)(F)F)c1 (some centres unmarked) [TY042]
Emax [3, 9]: 47% | Emax [3, 10]: 47% | GPI/LMMP SP Agonist (IC50; nM) ([6]; Table 39, at 10 nM): none | Emax [4, 11]: 28% | Emax [4, 12]: 28% | solubility ([5]; Table 26, HEPES buffer pH 7.4): 1.4 µg/mL (≈ 1.05 µM)

CC(C)C[C@H](NC(=O)[C@@H]1CCCN1C(=O)[C@H](Cc1ccccc1)NC(=O)CNC(=O)[C@@H](C)NC(=O)[C@@H](N)Cc1ccc(O)cc1)C(=O)N[C@@H](Cc1c[nH]c2ccccc12)C(=O)NCc1ccccc1 [TY008, H-Tyr-DAla-Gly-Phe-Pro-Leu-Trp-NH-Bzl]
species difference between the guinea pig and the rat (NK1) ([6]; GPI Ke vs rNK1 affinity): more than 40 fold | Kb ([6]; Substance P antagonist, GPI, Ke, in the presence of 1 μM naloxone): 26 ± 3.9 nM | inhibition at 1 µM (rat NK1 (rNK1) receptor; [13]): 30 ± 9.9% | inhibition at 1 µM (rat NK1 (rNK1) receptor; read-out: inhibition at rNK1 receptor): 30% | IC50 [1]: 31.6 nM | Ki [1, 16]: 14 nM | Ki [1, 17]: 14 nM | Ki ([1]; read-out: Ki, hNK1): 14 nM | logD7.4 [2, 8]: 3.3

CC(C)C[C@H](NC(=O)[C@@H]1CCCN1C(=O)[C@H](Cc1ccccc1)NC(=O)CNC(=O)[C@@H](C)NC(=O)[C@@H](N)Cc1ccc(O)cc1)C(=O)N[C@@H](Cc1c[nH]c2ccccc12)C(=O)N(C)Cc1cc(C(F)(F)F)cc(C(F)(F)F)c1 [TY013, H-Tyr-D-Ala-Gly-Phe-Pro-Leu-Trp-NMe-3,5-Bzl(CF3)2]
IC50 (rat NK1 (rNK1) receptor): 20 nM | IC50 [1]: 3.16 nM | Ki [1]: 6.1 nM | Ki [1, 16]: 1.4 nM | Ki [1, 17]: 1.4 nM | logD7.4 [2, 8]: >4

CSCC[C@H](NC(=O)[C@H](Cc1ccccc1)NC(=O)CNC(=O)[C@@H](C)NC(=O)[C@@H](N)Cc1ccc(O)cc1)C(=O)N1CCC[C@H]1C(=O)N[C@@H](CC(C)C)C(=O)N[C@@H](Cc1c[nH]c2ccccc12)C(=O)NCc1cc(C(F)(F)F)cc(C(F)(F)F)c1 [TY027, H-Tyr-D-Ala-Gly-Phe-Met-Pro-Leu-Trp-NH-3,5-Bzl(CF3)2]
IC50 (δ opioid receptors (MVD)): 14.5 nM | Kb ([6]; Substance P antagonist, GPI, Ke (nM), Table 16, in the presence of 1 μM naloxone): 10 ± 2.1 nM | Ki (rat NK1 (rNK1) receptor; Table 29, read-out: Affinity rNK1 (Ki; nM)): 7.27 nM | solubility ([5]; pH 7.4, 0.05 N HEPES buffer in 0.1 N NaCl solution): < 0.2 µg/mL | species difference between affinities at rNK1 and hNK1 ([1]; Ki rNK1 vs Ki hNK1): 1100 fold | logD7.4 [2, 8]: >4.0 | IC50 (μ opioid receptors (GPI); Table 16, electrically stimulated isolated tissue, read-out: Opioid agonist GPI (μ), IC50): 490 ± 29 nM | IC50 (μ opioid receptors (GPI); Table 22, electrically stimulated isolated tissue, read-out: Opioid agonist GPI (μ), IC50): 490 ± 29 nM | IC50 (μ opioid receptors (GPI); Table 30, read-out: GPI/LMMP Opioid(m) Agonist (IC50; nM)): 488 nM | IC50 (μ opioid receptors (GPI); [15]): 488 nM | IC50 (μ opioid receptors (GPI); electrically stimulated isolated tissue, read-out: GPI (μ), IC50): 490 nM
